Data published in patent US12551463B2, “Dosing of a Bruton's tyrosine kinase inhibitor” (Loxo Oncology, Inc., priority 2019, dated 2026).
“Also recorded” adds a separate entry of the source.

Tests used:
follicular lymphoma = assay: Phase 1/2 clinical study, follicular lymphoma patients; type: in vivo, human; conditions: among 8 efficacy-evaluable patients
From the text: The study is an open-label, multi-center study of oral BTK-I to evaluate safety and efficacy as monotherapy and as part of combination therapy in patients with CLL/SLL and NHL who have failed or are intolerant to standard of care. This study includes monotherapy as well as combination treatment parts. The monotherapy part includes Phase 1 dose escalation and dose expansion as well as Phase 2. The combination therapy part is a Phase 1b (safety assessment and expansion) of BTK-I in combination with venetoclax, with or without anti-CD20 therapy. Phase 1 dose escalation will proceed prior to start of Phase 1b or Phase 2. Once a recommended Phase 2 dose (RP2D) is identified in Phase 1, enrollment can commence to the Phase 1b combination therapies and Phase 2 monotherapy cohorts. […]
(§1) The primary objective of the Phase 2 is to assess the primary anti-tumor activity of BTK-I based on overall response rate (ORR) and as assessed by the Independent Review Committee. […]
(§2) Dosing during Phase 2 will be at the RP2D of 200 mg QD. […] The dose (and schedule) chosen for Phase 2 may be changed by the SRC based on emerging data (e.g., PK, safety, and/or efficacy) as long as the new dose is not greater than the highest dose that has a DLT <33% and is determined to be safe by the SRC in Phase 1. […]

CLL/SLL and B-cell NHL = assay: Phase 1/2 clinical study of oral BTK-I monotherapy, all patients; type: in vivo, human
From the text: The study is an open-label, multi-center study of oral BTK-I to evaluate safety and efficacy as monotherapy and as part of combination therapy in patients with CLL/SLL and NHL who have failed or are intolerant to standard of care. This study includes monotherapy as well as combination treatment parts. The monotherapy part includes Phase 1 dose escalation and dose expansion as well as Phase 2. The combination therapy part is a Phase 1b (safety assessment and expansion) of BTK-I in combination with venetoclax, with or without anti-CD20 therapy. Phase 1 dose escalation will proceed prior to start of Phase 1b or Phase 2. Once a recommended Phase 2 dose (RP2D) is identified in Phase 1, enrollment can commence to the Phase 1b combination therapies and Phase 2 monotherapy cohorts.
The primary objectives of the Phase 1 Dose Escalation and Expansion part of the study is to determine the maximum tolerated dose (MTD)/RP2D of oral BTK-I in patients with previously treated CLL/SLL and B-cell NHL.
Patients are enrolled with histologically confirmed CLL/SLL or B-cell NHL who have failed or are intolerant to at least two prior standard of care regimens given in combination or sequentially or have received at least one prior BTK inhibitor-containing regimen when BTK inhibitor is approved in first line.
BTK-I is administered in oral tablet form. Dose escalation will follow a 3+3 design starting with a 25 mg QD dose (followed by 50 mg QD (dose level cohort 2), 100 mg QD (dose level cohort 3), 150 mg QD (dose level cohort 4), 200 mg QD (dose level cohort 5), 250 mg QD (dose level cohort 6), and 300 mg QD (dose level cohort 7)). Cycle length will be 28 days. The drug limiting toxicity (DLT) period will be 28 days, commencing with the first dose of BTK-I.
as §1, §2

## COc1ccc(F)cc1C(=O)NCc1ccc(-c2nn([C@@H](C)C(F)(F)F)c(N)c2C(N)=O)cc1 [BTK-I, (S)-5-amino-3-(4-((5-fluoro-2-methoxybenzamido)methyl)phenyl)-1-(1,1,1-trifluoropropane-2-yl)-1H-pyrazole-4-carboxamide]
Follicular lymphoma
  patients with responses: 4
CLL/SLL and B-cell NHL; 25 mg QD
  responses at first dose level: Responses were observed
CLL/SLL and B-cell NHL; 7 dose levels, 25 mg to 300 mg QD
  clinical activity/efficacy across dose levels: demonstrated activity across all dose levels; also recorded: Efficacy was observed at all dose levels
CLL/SLL and B-cell NHL; 237 of 323 at data cut
  treated patients remaining on BTK-I: 73%
CLL/SLL and B-cell NHL; remaining 39 patients (other B-cell malignancies)
  responses in remaining efficacy-evaluable patients: 8
